Measurements published in patent US20260232644A1, “Compositions Comprising an Inhibitor of Galectin-3” (University of Liverpool, priority 2023, published 2026).
Counter-ions that a name gives are not always drawn.

Key:
[1] = tested on: human lung cancer H1975 cells; assay: Lung cancer cell adhesion to basement matrix; type: cell-based
Protocol: (§1) Nanty-six well plates were coated with 50 μl Matrigel (1:30 diluted in PBS) at 37° C. for 1 hour.
(§2) Cancer cells, pre-labelled with fluorescent die DiI at 37° C. for 20 minutes, were washed twice with PBS and resuspended into 3×10^4 cells/ml in serum-free medium. The matrix-coated 96-well plates were washed twice with PBS before introduction of 100μ cell suspension with different concentrations of the inhibitors or PBS/DMSO (control) for 1 hour at 37° C. The plates were washed twice with PBS before three randomly selected Field of Views (FOVs) were recorded by fluorescence microscope and number of adhesion cells were quantified by Image J.

Galectin-8 = biological target: T1, Galectin-8 (Homo sapiens, UniProt O00214); assay: Galectin-8 binding to asialofetuin ELISA; details: Gal-8 5 μg/ml, ASF 20 μg/ml
T1 construct: purchased R&D Systems (Abingdon, UK)
T1 sequence (O00214 1-317): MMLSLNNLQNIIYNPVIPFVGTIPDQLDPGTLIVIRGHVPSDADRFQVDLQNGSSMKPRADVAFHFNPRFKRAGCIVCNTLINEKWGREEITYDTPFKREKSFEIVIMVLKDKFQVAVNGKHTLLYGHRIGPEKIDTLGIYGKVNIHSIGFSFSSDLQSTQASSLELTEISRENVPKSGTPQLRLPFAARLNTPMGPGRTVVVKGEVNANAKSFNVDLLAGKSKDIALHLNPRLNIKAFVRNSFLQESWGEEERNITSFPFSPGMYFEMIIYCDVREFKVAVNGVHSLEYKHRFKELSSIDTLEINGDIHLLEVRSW
Protocol: (§3) Effect of the inhibitors on galectin binding to its ligand asialo fetuin (ASF) was measured by galectin ELISA. Nanty-six well plates were coated overnight with 20 μg/ml ASF in coating buffer (15 mM Na2CO3 17 mM NaHCO3 pH 9.6.). The wells were washed twice with PBS and incubated with blocking buffer (1% BSA in PBS) for 1 hr. The supernatants were removed and replaced with 5 μg/ml recombinant human galectin without or with different concentrations of the compound inhibitors or lactose in blocking buffer for 1 hr at room temperature. The wells were washed and incubated with 1 μg/ml anti-galectin antibody for 2 hr. Following addition of HRP-conjugated secondary antibody for 1 hr, FAST OPD development solution was added for 15-20 minutes. The reaction was terminated by addition of 4M sulphuric acid. The plates were read at 492 nm (reference wavelength 595 nm) by a microplate reader.

Galectin-3 = biological target: T2, Galectin-3 (Homo sapiens, UniProt P17931); assay: Galectin-3 binding to asialofetuin (ASF) ELISA
T2 construct: made in house; host or cells: E. coli
Protocol: as §3

Galectin-2 = biological target: T3, Galectin-2 (Homo sapiens, UniProt P05162); assay: Galectin-2 binding to asialofetuin ELISA; details: Gal-2 5 μg/ml, ASF 20 μg/ml
T3 construct: made in house; host or cells: E. coli
T3 sequence (P05162 1-132): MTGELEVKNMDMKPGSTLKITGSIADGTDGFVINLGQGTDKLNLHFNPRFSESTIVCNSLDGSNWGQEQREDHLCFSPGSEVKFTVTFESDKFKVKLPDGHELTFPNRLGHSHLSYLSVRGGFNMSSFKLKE
Protocol: as §3

[2] = tested on: human pancreatic cancer PANC1 cells; assay: Pancreatic cancer cell adhesion to basement matrix; type: cell-based
Protocol: as §1, §2
MDAMB-231 or PANC-1 cells were seeded into 6-well plate (2×10^5 cells) and cultured at 37° C. for 24 hour. Galectin-3 CRISPR Cas9 Knockout plasmid (2 μg) and galectin-3 HDR plasmid (2 μg) was mixed with Plasmid Transfection Medium (21 μl) for 5 minutes before addition to a mixture of lipofectamine STEM Transfection Reagent (STEM00001) (1 μl) and Plasmid Transfection Medium (25 μl) for 10 minutes at room temperature. The cells in the 6-well plates were washed and introduced with the Plasmid DNA/Lipofectamine STEM Transfection Reagent complex at 37° C. for 24 hour. The culture medium was replaced with fresh antibiotics-free medium for further 24 hour before introduction of 10 μg/mL puromycin-containing medium every three days. Successful co-transfection of the CRISPR/Cas9 KO Plasmid and HDR Plasmid was confirmed by expression of red fluorescence protein of the cells. Galectin-3 knockout in the cells was further confirmed by immunoblotting.

[3] = tested on: human melanoma ACA19 cells; assay: ACA19 cell invasion through HUVECs (transwell); type: cell-based; details: compound 20 μM, transwells
Protocol: (§4) HUVECs were plated at a density of 1.5×10^4 cells in 8 μm pore transwells in 24-well plate and cultured for three days to allow formation of tight monolayer. The integrity of HUVEC monolayer was confirmed by measuring TEER and only monolayers with TEER reading>800 Ω/cm^2 were used for the invasion assay. AGA19+ or SW620 cell suspension (5×10^5 cells/ml in DMEM) was introduced with 5 μl/ml fluorescent cell labelling solution DiL for 30 min at 37° C. The fluorescence labelled cells were washed twice with PBS and resuspended into 1×10^5 cells/ml in DMEM. The cancer cell suspension was then incubated with or without galectin-3 (2 μg/ml) or various concentrations of the compound inhibitors or lactose at 37° C. for 20 min before introduction to the HUVEC monolayers for 24 hr at 37° C. The cells at the upper side of the trans-well inserts were gently removed with cotton swabs. The cells migrated to the bottom side of the transwells were fixed with 2% paraformaldehyde for 10 min. The trans-well membrane was removed and placed on glass slides. After addition of fluorescence mounting medium containing DAPI, the fluorescence labelled cells on the membrane were quantified under a fluorescence microscope.

yeast = assay: Genotoxicity in yeast
[4] = tested on: human colon cancer SW620 cells; assay: LDH release cytotoxicity assay, SW620; type: cell-based
Protocol: SW620 cells (5×10^4 cells/ml) were seeded into 96-well plate in DMEM (and incubated at 37° C. 5% CO2 for 24 hr. HUVECs (1.0×10^5 cells/ml) was seeded in EBM medium and incubated for 24-36 hr until they formed a monolayer. Compound inhibitors at different concentrations were then introduced to the cells (10× lysis buffer was included as maximum LDH activity control) for 24 hr. The culture medium was transferred to a new plate and was mixed with equal volume of reaction mixture provided in the kit for 30 min at room temperature before the absorbance was measured at 490 nm (reference 680 nm) by a spectrophotometer.

[5] = tested on: human colon cancer SW620 cells; assay: SW620 cell invasion through HUVECs (transwell); type: cell-based; details: compound 20 μM, transwells
Protocol: as §4, with “The cancer cell suspension was then incubated with or without galectin-3 (2 μg/ml) or various concentrations of the compound inhibitors or lactose at 37° C. for 20 min before introduction to the HUVEC monolayers for 24 hr at 37° C.” left out

T2 sequence (P17931 whole entry): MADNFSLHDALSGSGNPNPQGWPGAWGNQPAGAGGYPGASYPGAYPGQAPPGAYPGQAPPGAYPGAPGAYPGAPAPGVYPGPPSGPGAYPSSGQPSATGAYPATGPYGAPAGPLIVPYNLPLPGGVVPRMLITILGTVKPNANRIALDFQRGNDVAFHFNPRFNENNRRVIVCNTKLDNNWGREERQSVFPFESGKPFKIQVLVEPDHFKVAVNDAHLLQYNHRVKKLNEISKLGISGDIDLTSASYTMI

NC1CCN(c2nc3c(cc2F)c(=O)c(C(=O)O)cn3-c2ccc(F)cc2F)C1 (centres unmarked) [Formula X, Tosufloxacin tosylate]
IC50 ([1]; Homo sapiens, NCI-H1975): ~5 µM | Inhibition of H1975 cell adhesion to matrix ([1]; different concentrations): dose-dependent inhibition | Effect on Galectin-8 binding to asialofetuin (Galectin-8): does not affect binding | Inhibition of Galectin-3 binding to its ligand asialofetuin (ASF) (Galectin-3; Galectin-3 5 μg/ml, ASF 20 μg/ml, different concentrations of compound, ELISA): inhibit galectin-3 binding to ASF in a dose-dependent manner | IC50 (Galectin-3; read-out: IC50, inhibition of Galectin-3 binding to its ligand): ≤ 10 µM | Effect on Galectin-2 binding to asialofetuin (Galectin-2): does not affect binding | Effect on adhesion of galectin-3 knockout (Gal3KO) PANC1 cells ([2]; CRISPR/Cas9 Gal3KO cells): lost their inhibitory effect | Effect on adhesion of non-transfected (con) PANC1 cells ([2]; control cells): significant reduction | Inhibition of PANC1 cell adhesion to matrix ([2]; different concentrations): dose-dependent inhibition | Inhibition of Galectin-3-mediated invasion of ACA19 cells through HUVECs [3]: significant inhibition | Genotoxicity in yeast (yeast): no detectable genotoxicity | Cytotoxicity to SW620 cells (LDH release) ([4]; at 100 μM): no detectable cytotoxicity | Cytotoxicity to SW620 cells (LDH release) ([4]; various concentrations): low cytotoxicity | Inhibition of galectin-3-mediated invasion of SW620 cells through HUVECs [5]: significant inhibition
